Experimental data: PMC5991783, “Discovery and Optimization of Indolyl-Containing 4-Hydroxy-2-Pyridone Type II DNA Topoisomerase Inhibitors Active against Multidrug Resistant Gram-negative Bacteria” (Journal of Medicinal Chemistry, 2018)

Legend:
[1] = Mouse plasma protein binding, equilibrium dialysis
E. coli ATCC 25922 = assay: MIC, wild-type E. coli ATCC 25922; format: cell-based, Escherichia coli; conditions: Escherichia coli, ATCC25922; E. coli ATCC 25922; read-out: MIC E. coli^WT
E. coli DNA gyrase = E. coli DNA gyrase (Escherichia coli, UniProt P0AES4+P0AES6); assay: biochemical; conditions: E. coli DNA gyrase IC50
[2] = system: panel of 12 E. coli isolates; assay: Susceptibility testing, 12 E. coli isolates; format: cell-based, Escherichia coli; conditions: 12 strains
E. coli SKM18 = assay: microbe, parasite or virus in culture; format: cell-based, Escherichia coli; conditions: Escherichia coli, SKM18, read-out: MIC E. coli^R1, E. coli SKM18
E. coli^WT (ATCC 25922) = assay: Mouse septicemia model; format: in vivo, CD-1 mice; conditions: Mus musculus, iv, 96 h; read-out: survival
[3] = system: panel of 12 A. baumannii isolates; assay: Susceptibility testing, 12 A. baumannii isolates; format: cell-based, Acinetobacter baumannii; conditions: 12 strains
E. coli ELZ4251 = assay: MIC, clinical isolate E. coli ELZ4251; format: cell-based; conditions: Escherichia coli, read-out: MIC E. coli^R2
[4] = Pharmacokinetics in CD-1 mice; conditions: CD-1, mouse, plasma
human topoisomerase II = human topoisomerase II (Homo sapiens, UniProt P11388); assay: Human topoisomerase II decatenation assay; format: biochemical; conditions: Supplemental Table 1; read-out: Human Topo II IC50
[5] = system: Acinetobacter baumannii ATCC BAA-747; assay: MIC, wild-type A. baumannii; format: cell-based; conditions: Acinetobacter baumannii, ATCCBAA747; A. baumannii ATCC BAA-747; read-out: MIC A. bau^WT
A. baumannii MMX2240 = assay: MIC, fluoroquinolone resistant A. baumannii; format: cell-based, Acinetobacter baumannii; conditions: Acinetobacter baumannii
[6] = system: Klebsiella pneumoniae ATCC 35657; assay: MIC, wild-type K. pneumoniae; format: cell-based; conditions: Klebsiella pneumoniae, ATCC35657; K. pneumoniae ATCC 35657; read-out: MIC K. pneu^WT

Sequence of human topoisomerase II (P11388 whole entry): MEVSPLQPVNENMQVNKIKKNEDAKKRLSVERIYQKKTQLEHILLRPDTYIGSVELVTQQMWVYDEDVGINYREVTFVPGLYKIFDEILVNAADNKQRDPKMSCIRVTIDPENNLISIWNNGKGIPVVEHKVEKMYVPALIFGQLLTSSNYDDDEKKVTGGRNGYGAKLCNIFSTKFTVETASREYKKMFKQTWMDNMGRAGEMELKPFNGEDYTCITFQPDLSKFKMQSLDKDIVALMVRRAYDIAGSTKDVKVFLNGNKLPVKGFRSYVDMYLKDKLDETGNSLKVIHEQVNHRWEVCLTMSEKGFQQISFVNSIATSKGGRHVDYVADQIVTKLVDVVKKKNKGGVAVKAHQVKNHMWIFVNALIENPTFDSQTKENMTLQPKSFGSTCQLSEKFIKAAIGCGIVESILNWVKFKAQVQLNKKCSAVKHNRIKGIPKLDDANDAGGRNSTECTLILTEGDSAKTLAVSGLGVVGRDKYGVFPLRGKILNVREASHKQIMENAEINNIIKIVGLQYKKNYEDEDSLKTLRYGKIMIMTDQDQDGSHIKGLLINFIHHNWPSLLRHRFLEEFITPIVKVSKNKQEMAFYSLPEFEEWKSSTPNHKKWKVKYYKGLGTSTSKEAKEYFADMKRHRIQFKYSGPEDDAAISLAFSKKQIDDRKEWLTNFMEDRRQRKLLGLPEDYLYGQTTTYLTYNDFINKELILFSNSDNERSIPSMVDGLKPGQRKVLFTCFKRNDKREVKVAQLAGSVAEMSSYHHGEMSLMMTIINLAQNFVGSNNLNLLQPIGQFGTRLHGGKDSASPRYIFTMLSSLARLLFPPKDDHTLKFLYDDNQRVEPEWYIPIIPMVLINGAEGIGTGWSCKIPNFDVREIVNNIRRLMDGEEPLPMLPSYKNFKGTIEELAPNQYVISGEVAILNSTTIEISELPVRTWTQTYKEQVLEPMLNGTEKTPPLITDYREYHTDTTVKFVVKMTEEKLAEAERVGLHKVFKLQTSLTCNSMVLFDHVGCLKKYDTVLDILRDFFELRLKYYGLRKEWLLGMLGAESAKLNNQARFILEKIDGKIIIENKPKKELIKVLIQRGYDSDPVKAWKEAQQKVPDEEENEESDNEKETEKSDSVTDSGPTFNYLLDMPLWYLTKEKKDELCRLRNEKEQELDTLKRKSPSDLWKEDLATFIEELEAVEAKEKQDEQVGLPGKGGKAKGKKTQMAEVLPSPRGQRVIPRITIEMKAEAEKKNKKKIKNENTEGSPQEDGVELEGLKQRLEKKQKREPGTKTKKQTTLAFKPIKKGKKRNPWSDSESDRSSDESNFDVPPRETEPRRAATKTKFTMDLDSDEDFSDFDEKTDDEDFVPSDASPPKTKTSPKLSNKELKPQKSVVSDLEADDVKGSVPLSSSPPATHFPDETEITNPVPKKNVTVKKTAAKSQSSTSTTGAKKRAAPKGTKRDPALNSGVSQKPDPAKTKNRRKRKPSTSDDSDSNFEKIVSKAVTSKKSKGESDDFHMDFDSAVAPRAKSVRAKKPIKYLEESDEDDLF
Sequence of E. coli DNA gyrase (P0AES4 whole entry, one chain of several): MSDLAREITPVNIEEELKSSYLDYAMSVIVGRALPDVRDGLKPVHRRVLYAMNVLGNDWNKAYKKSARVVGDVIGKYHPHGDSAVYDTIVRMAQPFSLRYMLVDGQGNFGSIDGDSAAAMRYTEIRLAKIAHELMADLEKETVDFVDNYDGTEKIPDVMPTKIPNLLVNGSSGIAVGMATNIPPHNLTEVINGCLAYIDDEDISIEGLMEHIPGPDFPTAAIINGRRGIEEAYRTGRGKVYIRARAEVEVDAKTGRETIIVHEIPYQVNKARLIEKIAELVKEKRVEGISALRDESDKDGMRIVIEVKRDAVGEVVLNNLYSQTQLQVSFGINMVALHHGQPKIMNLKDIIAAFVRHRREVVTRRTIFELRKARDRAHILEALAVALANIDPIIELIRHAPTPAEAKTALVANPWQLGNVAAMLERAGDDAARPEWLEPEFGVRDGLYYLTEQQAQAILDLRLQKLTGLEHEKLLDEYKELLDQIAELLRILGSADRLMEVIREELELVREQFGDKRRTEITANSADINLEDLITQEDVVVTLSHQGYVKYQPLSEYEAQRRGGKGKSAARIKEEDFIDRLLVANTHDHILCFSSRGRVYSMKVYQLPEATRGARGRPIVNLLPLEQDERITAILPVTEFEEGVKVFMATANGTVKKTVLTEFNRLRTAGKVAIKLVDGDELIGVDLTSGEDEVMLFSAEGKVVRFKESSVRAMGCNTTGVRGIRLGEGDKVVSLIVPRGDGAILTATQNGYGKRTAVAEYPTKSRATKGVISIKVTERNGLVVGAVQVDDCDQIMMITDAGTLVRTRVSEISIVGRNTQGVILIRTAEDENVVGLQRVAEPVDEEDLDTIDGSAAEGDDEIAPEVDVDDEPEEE

Work on `CCC(C)NCc1cc2cc3c(cc2n1C)OCCc1c-3[nH]c(=O)c(C(=O)O)c1O.Cl` (stereo not drawn) [Compound 6o, 10-((sec-Butylamino)methyl)-4-hydroxy-9-methyl-2-oxo-2,5,6,9-tetrahydro-1H-pyrido[2′,3′:4,5]oxepino[3,2-f]indole-3-carboxylic Acid Hydrochloride] yielded a fraction unbound at 1 μM [1] of 0.23, an MIC (E. coli ATCC 25922) of 0.78 µg/mL and an IC50 (E. coli DNA gyrase) of 110 nM. For the same compound, the “E. coli MIC90” value ([2]; Mueller Hinton II broth) was 1 µg/mL, the MIC90 ([2]; Escherichia coli, Mueller Hinton II broth, read-out: E. coli MIC90) was 0.5 to 1 µg/mL and the MIC50 ([2]; Escherichia coli) was 1 µg/mL. The MIC ([2]; Escherichia coli, read-out: E. coli MIC range) was 0.12 to 1 µg/mL, the MIC (E. coli SKM18) was 0.78 µg/mL and the responders at 20 mg/kg (E. coli^WT (ATCC 25922)) was 100%. The “A. baumannii MIC90” value ([3]; Mueller Hinton II broth) was 8 µg/mL, the MIC90 ([3]; Acinetobacter baumannii, Mueller Hinton II broth, read-out: A. baumannii MIC90) was 8 to 16 µg/mL and the MIC50 ([3]; Acinetobacter baumannii) was 2 µg/mL. The MIC (E. coli ELZ4251) was 2 µg/mL, the AUC(0-t) ([4]; iv, 10 mg/kg, pH 8) was 3440 ng·h/mL and the clearance ([4]; iv, 10 mg/kg, pH 8) was 48 mL/min/kg. The half-life ([4]; iv, 10 mg/kg, pH 8) was 126 min, the bioavailability ([4]; po) was 41% and the IC50 (human topoisomerase II) was greater than 100 µM. The MIC [5] was 1.6 µg/mL, the MIC (A. baumannii MMX2240) was 0.78 µg/mL and the MIC [6] was 1 µg/mL.
